Reference: patent US20190338284A1, “COMPLEX FOR DRUG DELIVERY AND STABILIZATION AND PREPARATION METHOD THEREOF” (INTEROLIGO CORPORATION, priority 2016, published 2019)
“Also recorded” adds a separate entry of the source.

Assays:
Format in all cases: cell-based, human
[1] = system: BT-474 and MCF-7 breast cancer cell lines; assay: WST-1 assay of atelocollagen-[ERBB2 aptamer-siRNA conjugate] complex on breast cancer cell lines
Description: Cell inhibition efficacy validation of atelcollagen-[ERBB2 aptamer-siRNA conjugate] complex to breast cancer cell lines, i.e., BT-474 and MCF-7, was performed in vitro through WST-1 assay. After treating the breast cancer cell lines with naked ERBB2, atelocollagen-[control aptamer-siRNA conjugate] complex without activity, as well as atelocollagen-[ERBB2 aptamer-siRNA conjugate] complex wherein an effective anticancer agent having excellent anticancer efficacy, that is, siRNA is bound to ERBB2 target aptamer having a cancer cell targeting function, respectively, WST-1 assay was performed.

[2] = system: BT-474 and MCF-7 breast cancer cell lines; assay: WST-1 assay of ERBB2 aptamer-siRNA conjugate on breast cancer cell lines
Description: In addition, WST-1 assay for the breast cancer cell lines, i.e., BT-474 and MCF-7, was performed. Cell inhibition efficacy validation of ERBB2 aptamer to the breast cancer cell lines was performed in vitro through WST-1 assay. After treating the breast cancer cell lines with a control ERBB2 aptamer without activity, as well as ERBB2 aptamer-siRNA conjugate wherein an effective anticancer agent having excellent anticancer efficacy, that is, siRNA is bound to ERBB2 target aptamer having a cancer cell targeting function, respectively, WST-1 assay was performed.

[3] = system: BxPC3, Miapaca-2, Panc-1 and capan-1 pancreatic cancer cell lines; assay: WST-1 assay of aptamer-drug conjugate on pancreatic cancer cell lines; details: WST-1, 0.1 to 100 μM, 72 hours; listed as AS1411 aptamer
Description: WST-1 assay for pancreatic cancer cell lines, i.e., BxPC3, Miapaca-2, Panc-1 and capan-1 was performed. Cell inhibition efficacy validation of AS1411-Gem conjugate to the pancreatic cancer cell lines was performed in vitro through WST-1 assay. First, a control aptamer CRO in a naked form without being combined with an anticancer agent, AS1411 having a cancer cell-targeting function, as well as CRO-Gem conjugate and AS1411-Gem conjugate which are combined with an anticancer agent effective to pancreatic cancer, i.e., gemcitabine, respectively, were prepared (Table 2).
Experimental procedure: Each of the pancreatic cancer cell lines, that is, B×PC3, Miapaca-2, Panc-1 and capan-1 (ATCC, RPMI+10% FBS), was seeded on a 96-well plate in a cell number of 1 to 2×10^4 cells/well, which was defined by a cell test method to determine an appropriate cell concentration, followed by growing for 1 day. The aptamer and aptamer-drug conjugate were dissolved in PBS, respectively, and were immediately treated in each well at concentrations from 0.1 μM up to 100 μM. The treated cells were incubated in a 5% CO2 incubator for 72 hours, treated with 10 μl of a reagent solution for WST-1 assay (WST-1, Roche), respectively, followed by measuring the absorbance at 440 nm using an ELISA reader (FIG. 13).

Substance | cell viability and proliferation, comparison of efficacy [1] | cell viability and proliferation, comparison of efficacy [2] | cell viability and proliferation, comparison of efficacy [3]
ERBB2 aptamer-siRNA conjugate (chain 1 AGCUGUCACAGAGGGGCUACUU; chain 2 GUAGCCCCUCUGUGACAGCUU; siRNA conjugated to ERBB2 aptamer, further chemistry not given here) | much better efficacy than the control group | much better efficacy than the ERBB2 aptamer | –
TTTGGTGGTGGTGGTTGTGGTGGTGGTGG (SEQ ID NO: 3) [AS1411] | – | – | much better efficacy than CRO; also recorded: more excellent efficacy than the case of treatment using the original anticancer agent, that is, gemcitabine alone
